Among the data in US7763627B2, “Tie-2 modulators and methods of use” (Exelixis, Inc., priority 2003, dated 2010) are IC50 values, retold here.

Chain of Tie-2 (Q02763 23-1124): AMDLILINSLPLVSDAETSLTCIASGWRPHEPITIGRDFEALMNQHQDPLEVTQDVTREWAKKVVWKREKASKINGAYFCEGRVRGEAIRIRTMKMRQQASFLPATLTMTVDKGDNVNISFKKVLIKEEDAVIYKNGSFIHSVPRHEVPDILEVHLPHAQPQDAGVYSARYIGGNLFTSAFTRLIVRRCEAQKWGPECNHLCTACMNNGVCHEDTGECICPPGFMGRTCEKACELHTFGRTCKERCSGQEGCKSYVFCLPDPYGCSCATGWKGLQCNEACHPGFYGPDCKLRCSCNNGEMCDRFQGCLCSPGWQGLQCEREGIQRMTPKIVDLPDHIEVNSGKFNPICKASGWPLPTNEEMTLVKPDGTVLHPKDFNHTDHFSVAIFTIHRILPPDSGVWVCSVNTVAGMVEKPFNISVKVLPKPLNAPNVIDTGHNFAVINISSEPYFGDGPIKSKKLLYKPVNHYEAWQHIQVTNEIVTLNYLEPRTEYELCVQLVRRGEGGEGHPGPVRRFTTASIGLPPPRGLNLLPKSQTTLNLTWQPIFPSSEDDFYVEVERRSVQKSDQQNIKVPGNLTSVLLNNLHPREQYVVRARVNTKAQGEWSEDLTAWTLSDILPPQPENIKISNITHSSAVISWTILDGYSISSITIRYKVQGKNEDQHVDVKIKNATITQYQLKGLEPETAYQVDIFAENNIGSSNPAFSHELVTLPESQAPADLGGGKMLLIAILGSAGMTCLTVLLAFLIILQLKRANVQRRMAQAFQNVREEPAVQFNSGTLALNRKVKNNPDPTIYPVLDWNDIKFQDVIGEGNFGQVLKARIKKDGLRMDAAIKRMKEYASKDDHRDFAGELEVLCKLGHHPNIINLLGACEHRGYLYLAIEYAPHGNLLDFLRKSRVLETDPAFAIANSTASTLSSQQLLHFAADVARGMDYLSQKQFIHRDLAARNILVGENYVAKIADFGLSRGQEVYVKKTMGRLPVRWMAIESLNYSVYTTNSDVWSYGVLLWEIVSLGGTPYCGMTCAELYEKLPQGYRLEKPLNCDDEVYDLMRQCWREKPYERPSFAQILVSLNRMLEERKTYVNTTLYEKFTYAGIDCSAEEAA

The test has as its target Tie-2 (Homo sapiens, UniProt Q02763). The test is described as follows: Tie-2 tyrosine kinase inhibition (ATP consumption by luciferase/luciferin chemiluminescence or 33P-ATP incorporation into pEY substrate). Type of test: biochemical. The following applies: human enzyme Tie-2; inhibition given as class symbol. The method, then:
Tyrosine kinase activity is determined by 1) measurement of kinase-dependent ATP consumption by in the presence of a generic substrate such as polyglutamine, tyrosin (pEY), by luciferase/luciferin-mediated chemiluminescence or; 2) incorporation of radioactive phosphate derived from ^33P-ATP into a generic substrate which has been adsorbed onto the well surface of polystyrene microtiter plates. Phosphorylated substrate products are quantified by scintillation spectrometry.
Inhibition is indicated as IC50 with following key: A=IC50 less than 50 nM, B=IC50 greater than 50 nM, but less than or equal to 1000 nM, C=IC50 greater than 1000 nM, but less than 10,000 nM, and D=IC50 10,000 nM or greater. The abbreviation for human enzyme, Tie-2, is defined as tyrosine kinase with immunoglobulin and EGF repeats.
For orientation: IC50 means the concentration needed to halve the response being measured. A low value points to greater potency. Turning to `O[C@@H]1CCCC[C@H]1Nc1nc(-c2cccnc2)nc2ccccc12` [Compound 36, (1R,2R)-2-[(2-pyridin-3-ylquinazolin-4-yl)amino]cyclohexanol], the IC50 was ≥ 10 µM.
In the case of `O[C@@H]1Cc2ccccc2[C@@H]1Nc1nc(-c2ccncc2)nc2ccc(Br)cc12` [Compound 45, (1S,2R)-1-[(6-bromo-2-pyridin-4-ylquinazolin-4-yl)amino]-2,3-dihydro-1H-inden-2-ol] it was < 0.05 µM; in that of `CC(C)[C@H](CO)Nc1nc(-c2ccncc2)nc2ccccc12` [Compound 53, (2R)-3-methyl-2-[(2-pyridin-4-ylquinazolin-4-yl)amino]butan-1-ol], ≥ 10 µM; in that of `OCCN(Cc1ccccc1)c1nc(-c2ccncc2)nc2ccccc12` [Compound 62, 2-[(phenylmethyl)(2-pyridin-4-ylquinazolin-4-yl)amino]ethanol], 1 to 10 µM.
Compound `c1ccc2c(NC3CCCC3)nc(-c3ccncc3)nc2c1` [Compound 3, N-cyclopentyl-2-pyridin-4-ylquinazolin-4-amine] showed an IC50 of 1 to 10 µM.
Turning to `OC[C@@H](Cc1ccccc1)Nc1nc(-c2ccncc2)nc2ccccc12` [Compound 60, (2R)-3-phenyl-2-[(2-pyridin-4-ylquinazolin-4-yl)amino]propan-1-ol], the IC50 was ≥ 10 µM.
Consider `c1ccc2c(c1)CCC2Nc1nc(-c2ccncc2)nc2ccccc12` (stereo not drawn) [Compound 9, N-(2,3-dihydro-1H-inden-1-yl)-2-pyridin-4-ylquinazolin-4-amine], for which the IC50 is 0.05 to 1 µM.
The result for `C[C@H](CO)Nc1nc(-c2ccncc2)nc2ccccc12` [Compound 41, (2R)-2-[(2-pyridin-4-ylquinazolin-4-yl)amino]propan-1-ol] reads ≥ 10 µM; that for `CCc1cc(-c2nc(N[C@@H]3c4ccccc4C[C@@H]3O)c3ccccc3n2)ccn1` [Compound 44, (1R,2S)-1-{[2-(2-ethylpyridin-4-yl)quinazolin-4-yl]amino}-2,3-dihydro-1H-inden-2-ol], ≥ 10 µM; that for `CC(C)[C@@H](CO)Nc1nc(-c2ccncc2)nc2ccccc12` [Compound 54, (2S)-3-methyl-2-[(2-pyridin-4-ylquinazolin-4-yl)amino]butan-1-ol], 1 to 10 µM.
For `O[C@@H]1Cc2ccccc2[C@@H]1Nc1nc(-c2ccncc2)nc2ccccc12` [Compound 18, (1S,2R)-1-[(2-pyridin-4-ylquinazolin-4-yl)amino]-2,3-dihydro-1H-inden-2-ol], the IC50 was < 0.05 µM.
The result for `Nc1nccc(-c2nc(N[C@H]3c4ccccc4C[C@H]3O)c3ccccc3n2)n1` [Compound 63, (1S,2R)-1-{[2-(2-aminopyrimidin-4-yl)quinazolin-4-yl]amino}-2,3-dihydro-1H-inden-2-ol] reads 0.05 to 1 µM; that for `O[C@@H]1Cc2ccccc2[C@@H]1Nc1nc(-c2ccccc2)nc2ccccc12` [Compound 26, (1S,2R)-1-[(2-phenylquinazolin-4-yl)amino]-2,3-dihydro-1H-inden-2-ol], ≥ 10 µM.
For the compound `Oc1ccc(N2CCN(c3nc(-c4ccncc4)nc4ccccc34)CC2)cc1` [Compound 11, 4-[4-(2-pyridin-4-ylquinazolin-4-yl)piperazin-1-yl]phenol], the IC50 was ≥ 10 µM.
In the case of `O[C@@H]1Cc2ccccc2[C@@H]1Nc1nc(-c2cnccn2)nc2ccccc12` [Compound 58, (1S,2R)-1-[(2-pyrazin-2-ylquinazolin-4-yl)amino]-2,3-dihydro-1H-inden-2-ol] it was ≥ 10 µM; in that of `OC[C@@H]1Cc2ccccc2N1c1nc(-c2ccncc2)nc2ccccc12` [Compound 40, [(2S)-1-(2-pyridin-4-ylquinazolin-4-yl)-2,3-dihydro-1H-indol-2-yl]methanol], ≥ 10 µM.
In the case of `CSc1nccc(-c2nc(N[C@H]3c4ccccc4C[C@H]3O)c3ccccc3n2)n1` [Compound 65, (1S,2R)-1-({2-[2-(methylthio)pyrimidin-4-yl]quinazolin-4-yl}amino)-2,3-dihydro-1H-inden-2-ol] it was ≥ 10 µM; in that of `COc1cc2nc(-c3ccncc3)nc(N[C@H]3c4ccccc4C[C@H]3O)c2cc1OC` [Compound 46, (1S,2R)-1-{[6,7-bis(methyloxy)-2-pyridin-4-ylquinazolin-4-yl]amino}-2,3-dihydro-1H-inden-2-ol], 0.05 to 1 µM.
The result for `O[C@H]1Cc2ccccc2[C@H]1Nc1nc(-c2cccnc2)nc2ccccc12` [Compound 34, (1R,2S)-1-[(2-pyridin-3-ylquinazolin-4-yl)amino]-2,3-dihydro-1H-inden-2-ol] reads ≥ 10 µM; that for `c1ccc(CO[C@H]2CCC[C@@H]2Nc2nc(-c3ccncc3)nc3ccccc23)cc1` [Compound 22, N-{(1S,2S)-2-[(phenylmethyl)oxy]cyclopentyl}-2-pyridin-4-ylquinazolin-4-amine], ≥ 10 µM.
Turning to `CCc1cc(-c2nc(N[C@H]3c4ccccc4C[C@H]3O)c3ccccc3n2)ccn1` [Compound 43, (1S,2R)-1-{[2-(2-ethylpyridin-4-yl)quinazolin-4-yl]amino}-2,3-dihydro-1H-inden-2-ol], the IC50 is ≥ 10 µM.
The result for `COc1ncc(-c2nc(N[C@H]3c4ccccc4C[C@H]3O)c3ccccc3n2)c(OC)n1` [Compound 52, (1S,2R)-1-({2-[2,4-bis(methyloxy)pyrimidin-5-yl]quinazolin-4-yl}amino)-2,3-dihydro-1H-inden-2-ol] reads ≥ 10 µM; that for `c1ccc2c(N[C@H]3CCCNC3)nc(-c3ccncc3)nc2c1` [Compound 50, N-[(3S)-piperidin-3-yl]-2-pyridin-4-ylquinazolin-4-amine], ≥ 10 µM; that for `Cc1ccc2c(N[C@H]3c4ccccc4C[C@H]3O)nc(-c3ccncc3)nc2c1` [Compound 51, (1S,2R)-1-[(7-methyl-2-pyridin-4-ylquinazolin-4-yl)amino]-2,3-dihydro-1H-inden-2-ol], < 0.05 µM.
The result for `O[C@H]1Cc2ccccc2[C@H]1Nc1nc(-c2ccncc2)nc2ccccc12` [Compound 17, (1R,2S)-1-[(2-pyridin-4-ylquinazolin-4-yl)amino]-2,3-dihydro-1H-inden-2-ol] reads ≥ 10 µM; that for `COc1ccc(-c2nc(N[C@H]3c4ccccc4C[C@H]3O)c3ccccc3n2)cn1` [Compound 49, (1S,2R)-1-({2-[6-(methyloxy)pyridin-3-yl]quinazolin-4-yl}amino)-2,3-dihydro-1H-inden-2-ol], 1 to 10 µM; that for `OC[C@@H](Nc1nc(-c2ccncc2)nc2ccccc12)c1ccccc1` [Compound 55, (2S)-2-phenyl-2-[(2-pyridin-4-ylquinazolin-4-yl)amino]ethanol], 1 to 10 µM.
In the case of `Fc1ccc(CNc2nc(-c3ccncc3)nc3ccccc23)cc1` [Compound 7, N-[(4-fluorophenyl)methyl]-2-pyridin-4-ylquinazolin-4-amine] it was 1 to 10 µM; in that of `c1ccc2c(c1)CC[C@@H](Nc1nc(-c3ccncc3)nc3ccccc13)C2` [Compound 12, 2-pyridin-4-yl-N-[(2R)-1,2,3,4-tetrahydronaphthalen-2-yl]quinazolin-4-amine], 0.05 to 1 µM; in that of `C[C@H](O)CNc1nc(-c2ccncc2)nc2ccccc12` [Compound 42, (2S)-1-[(2-pyridin-4-ylquinazolin-4-yl)amino]propan-2-ol], ≥ 10 µM.
